Patent publication US10632125B2, “MTH1 inhibitors for treatment of inflammatory and autoimmune conditions” (THOMAS HELLEDAYS STIFTELSE FÖR MEDICINSK FORSKNING, priority 2014, dated 2020)
pIC50: −log10 of the molar value.

Molecular target: MTH1 (Homo sapiens, UniProt P36639)
Assay: MTH1 enzymatic assay (malachite green, coupled to pyrophosphatase)
Type: biochemical
Details: not given
Description: MTH1 catalyzes the hydrolysis of dGTP to dGMP and PPi. By coupling the reaction to pyrophosphatase added in excess PPi is converted to Pi that can be detected by using the malachite green assay reagent. […] 96-well method: Briefly, the compound to be analyzed is diluted in DMSO in a 1:3 dilution series generating 12 different compound concentrations giving a final DMSO concentration of 1% in the assay well. MTH1 diluted in assay buffer (100 mM Tris-acetate, 40 mM NaCl, 10 mM magnesium acetate, 1 mM DTT and 0.005% Tween 20) fortified with E. coli pyrophosphatase (0.2 U/ml) is added to a final concentration of 6 nM. dGTP diluted in assay buffer is added to a final concentration of 100 μM. The reaction mixture is incubated for 15 minutes at 22° C. To 100 μl reaction mixture, 25 μl Malachite green assay regent (0.095% Malachite green in 17% H2SO4, 1.5% Ammonium molybdate, 0.17% Tween 20) is added, followed by incubation with shaking for 15 minutes at 22° C. The absorbance of the assay plate is read at 630 nm using a Hidex Sense Multilabel plate reader. The IC50 value is determined by fitting a dose response curve to the data points using nonlinear regression analysis and the equation Y=Bottom+(Top-Bottom)/(1+10^((Log IC50−X)*HillSlope)), where Y is the read absorbance at 630 nm and X is log [compound].
384-Well Method: The compounds to be tested are nano-dispensed, in 11 concentrations, directly in assay plates, with a final DMSO concentration <1%. The protocol and the reaction mixture are the same as for the 96-well assay, with a total reaction volume of 50 μl/well to which 10 μl of Malachite green reagent is added. All additions to the assay plates are made with multidrop.

pIC50, > 6.70:
CNc1cc(-c2cccc(Cl)c2Cl)nc(N)n1 [Example 38, 6-(2,3-dichlorophenyl)-4-N-methylpyrimidine-2,4-diamine]

Same assay, conditions: dGTP 100 μM, MTH1 6 nM; 96- or 384-well format; read-out: IC50

pIC50, > 6.70:
Nc1nc(NC2CCCCC2)cc(-c2ccccc2)n1 [Example 1, 4-N-cyclohexyl-6-phenylpyrimidine-2,4-diamine]
CCNc1cc(-c2ccccc2)nc(N)n1 [Example 2, 4-N-ethyl-6-phenylpyrimidine-2,4-diamine]
Nc1nc(NC2CCOCC2)cc(-c2ccccc2)n1 [Example 7, 4-N-(oxan-4-yl)-6-phenylpyrimidine-2,4-diamine]
Nc1nc(NC2CC2)cc(-c2ccc(Cl)cc2)n1 [Example 13, 6-(4-chlorophenyl)-4-N-cyclopropylpyrimidine-2,4-diamine]
Nc1nc(NC2CC2)cc(-c2cccc(C(F)(F)F)c2)n1 [Example 16, 4-N-cyclopropyl-6-[3-(trifluoromethyl)phenyl]pyrimidine-2,4-diamine]
Nc1nc(NC2CC2)cc(-c2cccc(Cl)c2)n1 [Example 19, 6-(3-chlorophenyl)-4-N-cyclopropylpyrimidine-2,4-diamine]
CNc1cc(-c2cn(S(=O)(=O)c3ccc(C)cc3)c3ccccc23)nc(N)n1 [Example 23, 4-N-methyl-6-[1-(4-methylbenzenesulfonyl)-1H-indol-3-yl]pyrimidine-2,4-diamine]
CNc1cc(-c2cn(S(=O)(=O)c3ccccc3)c3ccccc23)nc(N)n1 [Example 26, 6-[1-(benzenesulfonyl)-1H-indol-3-yl]-4-N-methylpyrimidine-2,4-diamine]
Cc1ccc(S(=O)(=O)n2cc(-c3cc(NC4CC4)nc(N)n3)c3ccccc32)cc1 [Example 27, 4-N-cyclopropyl-6-[1-(4-methylbenzenesulfonyl)-1H-indol-3-yl]pyrimidine-2,4-diamine]
Nc1nc(NC2CC2)cc(-c2cn(S(=O)(=O)c3ccccc3)c3ccccc23)n1 [Example 28, 6-[1-(benzenesulfonyl)-1H-indol-3-yl]-4-N-cyclopropylpyrimidine-2,4-diamine]
CNc1cc(-c2cn(S(=O)(=O)c3ccccc3)c3ncccc23)nc(N)n1 [Example 29, 6-[1-(benzenesulfonyl)-1H-pyrrolo[2,3-b]pyridin-3-yl]-4-N-methylpyrimidine-2,4-diamine]
CNc1cc(-c2cccc3c2ccn3S(=O)(=O)c2ccccc2)nc(N)n1 [Example 30, 6-[1-(benzenesulfonyl)-1H-indol-4-yl]-4-N-methylpyrimidine-2,4-diamine]
CNc1cc(-c2ccc(OC)cc2)nc(N)n1 [Example 33, 6-(4-methoxyphenyl)-4-N-methylpyrimidine-2,4-diamine]
CNc1cc(-c2cc(C(F)(F)F)cc(C(F)(F)F)c2)nc(N)n1 [Example 34, 6-[3,5-bis(trifluoromethyl)phenyl]-4-N-methylpyrimidine-2,4-diamine]
CNc1cc(-c2cccc(C(F)(F)F)c2)nc(N)n1 [Example 37, 4-N-methyl-6-[3-(trifluoromethyl)phenyl]pyrimidine-2,4-diamine]
CNc1cc(-c2ccc3c(c2)OCO3)nc(N)n1 [Example 39, 6-(2H-1,3-benzodioxol-5-yl)-4-N-methylpyrimidine-2,4-diamine]
CNc1cc(-c2cccc(NC(C)=O)c2)nc(N)n1 [Example 41, N-{3-[2-amino-6-(methylamino)pyrimidin-4-yl]phenyl}acetamide]
CNc1cc(-c2ccc(NC(C)=O)cc2)nc(N)n1 [Example 47, N-{4-[2-amino-6-(methylamino)pyrimidin-4-yl]phenyl}acetamide]
CNc1cc(-c2ccc(OC)nc2)nc(N)n1 [Example 49, 6-(6-methoxypyridin-3-yl)-4-N-methylpyrimidine-2,4-diamine.]
CNc1cc(-c2ccc(-c3ccccc3)cc2F)nc(N)n1 [Example 50, 6-(2-fluoro-4-phenylphenyl)-4-N-methylpyrimidine-2,4-diamine.]
C=CCNc1cc(-c2ccc(Cl)cc2)nc(N)n1 [Example 53, 6-(4-chlorophenyl)-4-N-(prop-2-en-1-yl)pyrimidine-2,4-diamine]
Nc1nc(NC2CCC2)cc(-c2ccc(Cl)cc2)n1 [Example 58, 6-(4-chlorophenyl)-4-N-cyclobutylpyrimidine-2,4-diamine]
CCCCCNc1cc(-c2cccc(Cl)c2Cl)nc(N)n1 [Example 61, 6-(2,3-dichlorophenyl)-4-N-pentylpyrimidine-2,4-diamine]
CC(C)(C)Nc1cc(-c2cccc(Cl)c2Cl)nc(N)n1 [Example 63, 4-N-tert-butyl-6-(2,3-dichlorophenyl)pyrimidine-2,4-diamine]
CNc1cc(-c2ccc(Cl)c(Cl)c2)nc(N)n1 [Example 68, 6-(3,4-dichlorophenyl)-4-N-methylpyrimidine-2,4-diamine]
CNc1cc(-c2ccc(C(C)(C)C)cc2)nc(N)n1 [Example 69, 6-(4-tert-butylphenyl)-4-N-methylpyrimidine-2,4-diamine]
CNc1cc(-c2ccc(C)cc2)nc(N)n1 [Example 70, 4-N-methyl-6-(4-methylphenyl)pyrimidine-2,4-diamine]
CNc1cc(-c2ccc(Cl)cc2Cl)nc(N)n1 [Example 71, 6-(2,4-dichlorophenyl)-4-N-methylpyrimidine-2,4-diamine]
CNc1cc(-c2ccc(F)cc2F)nc(N)n1 [Example 75, 6-(2,4-difluorophenyl)-4-N-methylpyrimidine-2,4-diamine]
CNc1cc(-c2cc(F)ccc2OC)nc(N)n1 [Example 76, 6-(5-fluoro-2-methoxyphenyl)-4-N-methylpyrimidine-2,4-diamine]
CNc1cc(-c2ccc(OC)c(F)c2)nc(N)n1 [Example 82, 6-(3-fluoro-4-methoxyphenyl)-4-N-methylpyrimidine-2,4-diamine]
CNc1cc(-c2ccc(F)c(F)c2)nc(N)n1 [Example 83, 6-(3,4-difluorophenyl)-4-N-methylpyrimidine-2,4-diamine]
CNc1cc(-c2ccc(OC(C)C)cc2)nc(N)n1 [Example 84, 4-N-methyl-6-[4-(propan-2-yloxy)phenyl]pyrimidine-2,4-diamine]
CNc1cc(-c2cccc(C)c2C)nc(N)n1 [Example 86, 6-(2,3-dimethylphenyl)-4-N-methylpyrimidine-2,4-diamine]
CNc1cc(-c2ccc(Cl)c(F)c2)nc(N)n1 [Example 88, 6-(4-chloro-3-fluorophenyl)-4-N-methylpyrimidine-2,4-diamine]
